# Measurements from ChEMBL document CHEMBL5376015, “Kinase inhibitor macrocycles: a perspective on limiting conformational flexibility when targeting the kinome with small molecules” (RSC Med Chem, 2024).
# Key:
# [1] = in vitro; details: human, human liver microsomes
# Description: Clearance in human liver microsomes
# [2] = Kinetic solubility of compound at pH 7; assay type: physicochemical; details: buffer, read-out: Kinetic_solubility
# [3] = Plasma protein binding in mouse; assay type: ADME, cell-free; details: read-out: PPB (converted)
# [4] = in vitro; details: human, human liver microsomes; remark: listed apart in the source
# Description: Half life in human liver microsome
# [5] = in vitro; details: mouse, mouse liver microsomes
# Description: Half life in mouse liver microsomes
# [6] = target: T1, Cytochrome P450 3A4 (Homo sapiens, UniProt P08684)
# Description: Inhibition of CYP3A4 (unknown origin)
# [7] = test system: NIH3T3; experiment: Antiproliferative activity against mouse NIH3T3 cells harbouring TRKA V573M mutant assessed as cell growth inhibition incubated for 3 days by CCK8 method; assay type: functional; details: NIH3T3, 72 h, time 3 day
# [8] = test system: NIH3T3; experiment: Antiproliferative activity against mouse NIH3T3 cells expressing TRKA G667S mutant assessed as inhibition of cell growth measured after 72 hrs by CCK-8 assay; assay type: functional
# [9] = test system: NIH3T3; experiment: Antiproliferative activity against mouse NIH3T3 cells expressing wild type TRKC […] assessed as inhibition of cell growth measured after 72 hrs by CCK-8 assay; assay type: functional
# [10] = test system: NIH3T3; experiment: Antiproliferative activity against mouse NIH3T3 cells expressing TRKC G623R mutant assessed as inhibition of cell growth measured after 72 hrs by CCK-8 assay; assay type: functional
# [11] = test system: NIH3T3; experiment: Antiproliferative activity against mouse NIH3T3 cells harbouring ETV6-TRKC G696A mutant incubated for 3 days by CCK8 method; assay type: functional; details: NIH3T3, 72 h, time 3 day
# [12] = test system: NIH3T3; experiment: cells; details: Mus musculus
# Description: Antiproliferative activity against mouse NIH3T3 cells transfected with wild type TRKA assessed as cell growth inhibition
# [13] = test system: BaF3; experiment: cells; details: Mus musculus, BaF3, 72 h
# Description: Antiproliferative activity against mouse BaF3 cells harbouring TRKA G595R mutant assessed as cell growth inhibition incubated for 3 days by CCK8 method
# [14] = test system: BaF3; experiment: cells; details: Mus musculus, BaF3, 72 h; remark: listed apart in the source
# Description: Antiproliferative activity against mouse BaF3 cells harbouring wild type TRKC assessed as cell growth inhibition incubated for 3 days by CCK8 method
# [15] = test system: BaF3; experiment: cells; details: Mus musculus, BaF3, 72 h; remark: listed apart in the source
# [16] = test system: BaF3; experiment: cells; details: Mus musculus, BaF3, 72 h; remark: listed apart in the source
# Description: Antiproliferative activity against mouse BaF3 cells harbouring ETV6-TRKC G623E mutant incubated for 3 days by CCK8 method
# [17] = target: Cyclin-dependent kinase 2 (Homo sapiens, UniProt P24941); experiment: Inhibition of human recombinant CDK2 by Kinomescan method
# [18] = target: Non-receptor tyrosine-protein kinase TYK2 (Homo sapiens, UniProt P29597); experiment: Inhibition of human recombinant TYK2
# [19] = target: Tyrosine-protein kinase JAK1 (Homo sapiens, UniProt P23458)
# Description: Inhibition of human recombinant JAK1
# [20] = target: Tyrosine-protein kinase JAK2 (Homo sapiens, UniProt O60674)
# Description: Inhibition of human recombinant JAK2
# [21] = target: T2, Receptor-type tyrosine-protein kinase FLT3 (Homo sapiens, UniProt P36888)
# T2 sequence (P36888 whole entry): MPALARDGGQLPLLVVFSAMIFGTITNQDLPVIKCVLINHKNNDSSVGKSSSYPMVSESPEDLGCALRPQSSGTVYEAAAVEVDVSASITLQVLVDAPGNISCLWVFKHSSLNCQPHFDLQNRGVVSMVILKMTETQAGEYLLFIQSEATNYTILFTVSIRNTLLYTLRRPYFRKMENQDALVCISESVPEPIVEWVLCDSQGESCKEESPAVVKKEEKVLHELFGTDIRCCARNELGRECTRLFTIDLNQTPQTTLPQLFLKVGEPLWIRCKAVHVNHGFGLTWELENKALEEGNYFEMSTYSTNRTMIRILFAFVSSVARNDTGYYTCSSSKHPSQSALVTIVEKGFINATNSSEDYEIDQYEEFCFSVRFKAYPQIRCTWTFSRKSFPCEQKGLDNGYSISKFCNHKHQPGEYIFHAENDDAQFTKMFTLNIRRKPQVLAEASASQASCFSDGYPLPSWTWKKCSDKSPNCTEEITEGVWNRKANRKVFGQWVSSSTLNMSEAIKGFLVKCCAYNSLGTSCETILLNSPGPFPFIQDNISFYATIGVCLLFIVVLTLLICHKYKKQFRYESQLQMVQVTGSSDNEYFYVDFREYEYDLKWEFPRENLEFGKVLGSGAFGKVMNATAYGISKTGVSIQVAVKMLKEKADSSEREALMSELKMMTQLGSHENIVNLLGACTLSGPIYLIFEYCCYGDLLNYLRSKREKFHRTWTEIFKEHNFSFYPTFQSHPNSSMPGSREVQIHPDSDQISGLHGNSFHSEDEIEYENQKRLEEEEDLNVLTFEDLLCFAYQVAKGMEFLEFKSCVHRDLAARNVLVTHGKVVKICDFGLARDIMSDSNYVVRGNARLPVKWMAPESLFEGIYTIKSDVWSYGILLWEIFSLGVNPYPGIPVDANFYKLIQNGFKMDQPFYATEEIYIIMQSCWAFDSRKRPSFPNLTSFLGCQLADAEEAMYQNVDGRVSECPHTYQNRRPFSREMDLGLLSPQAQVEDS
# Description: Inhibition of recombinant FLT3 in human MV4-11 cells assessed as reduction in ERK phosphorylation by Western blotting analysis
# [22] = test system: NIH3T3; experiment: Antiproliferative activity against mouse NIH3T3 cells harbouring TRKC G595R mutant assessed as cell growth inhibition incubated for 3 days by CCK8 method; assay type: functional; details: NIH3T3, 72 h, time 3 day
# [23] = test system: NIH3T3; experiment: Antiproliferative activity against mouse NIH3T3 cells expressing TRKA F589L mutant assessed as inhibition of cell growth measured after 72 hrs by CCK-8 assay; assay type: functional
# [24] = physchem; details: octanol/water
# Description: Lipophilicity, logD of the compound
# [25] = target: T3, Tyrosine-protein kinase JAK3 (Homo sapiens, UniProt P52333); experiment: Inhibition of human recombinant JAK3
# T3 sequence (P52333 whole entry): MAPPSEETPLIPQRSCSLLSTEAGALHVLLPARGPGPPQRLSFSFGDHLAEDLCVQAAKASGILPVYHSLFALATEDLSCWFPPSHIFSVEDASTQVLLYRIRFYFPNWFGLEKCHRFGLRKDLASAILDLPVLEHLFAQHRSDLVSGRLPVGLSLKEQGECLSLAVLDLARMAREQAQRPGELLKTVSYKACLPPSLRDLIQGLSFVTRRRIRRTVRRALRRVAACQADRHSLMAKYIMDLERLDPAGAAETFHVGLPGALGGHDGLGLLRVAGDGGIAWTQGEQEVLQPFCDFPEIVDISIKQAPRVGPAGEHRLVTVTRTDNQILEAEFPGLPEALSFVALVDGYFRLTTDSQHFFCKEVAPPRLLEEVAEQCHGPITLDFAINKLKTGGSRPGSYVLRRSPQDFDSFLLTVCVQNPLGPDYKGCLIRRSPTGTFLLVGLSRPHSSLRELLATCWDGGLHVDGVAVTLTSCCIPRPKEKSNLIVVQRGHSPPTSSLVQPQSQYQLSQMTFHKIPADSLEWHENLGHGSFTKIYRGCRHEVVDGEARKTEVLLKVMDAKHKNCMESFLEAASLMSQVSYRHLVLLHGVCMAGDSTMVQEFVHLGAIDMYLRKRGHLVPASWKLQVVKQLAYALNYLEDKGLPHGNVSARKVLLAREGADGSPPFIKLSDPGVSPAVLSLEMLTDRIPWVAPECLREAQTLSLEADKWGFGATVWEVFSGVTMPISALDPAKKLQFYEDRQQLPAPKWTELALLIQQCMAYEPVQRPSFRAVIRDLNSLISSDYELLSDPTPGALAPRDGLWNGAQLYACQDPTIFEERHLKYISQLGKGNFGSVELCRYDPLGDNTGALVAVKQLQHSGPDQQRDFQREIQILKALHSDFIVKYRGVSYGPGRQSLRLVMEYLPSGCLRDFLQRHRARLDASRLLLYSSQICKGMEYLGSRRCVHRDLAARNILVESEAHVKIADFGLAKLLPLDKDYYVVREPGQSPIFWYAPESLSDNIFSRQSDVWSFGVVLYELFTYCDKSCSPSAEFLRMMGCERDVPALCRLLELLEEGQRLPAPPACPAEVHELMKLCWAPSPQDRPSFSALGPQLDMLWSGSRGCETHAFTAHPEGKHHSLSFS
# [26] = test system: BaF3; experiment: Growth inhibition of mouse BaF3 cells harboring JAK2 V617F mutant assessed as reduction in cell viability incubated for 72 hrs by MTT assay; assay type: functional
# [27] = target: T1, Cytochrome P450 3A4; remark: listed apart in the source
# Description: Inhibition of CYP3A4 in human liver microsomes using testosterone as substrate by LC-MS/MS analysis
# [28] = target: T4, Cytochrome P450 2D6 (Homo sapiens, UniProt P10635)
# Description: Inhibition of CYP2D6 in human liver microsomes using dextromethorphan as substrate by LC-MS/MS analysis
# [29] = physchem; details: PBS, pH 7
# Description: Aqueous solubility of the compound in PBS at pH 7
# [30] = in vitro; details: PAMPA, pH 7.4
# Description: Permeability of compound at pH 7.4 by PAMPA assay
# [31] = target: T4, Cytochrome P450 2D6; remark: listed apart in the source
# Description: Inhibition of CYP2D6 (unknown origin)
# [32] = target: ALK tyrosine kinase receptor (Homo sapiens, UniProt Q9UM73)
# Description: Binding affinity to ALK (unknown origin) assessed as inhibition of constant
# [33] = target: ALK tyrosine kinase receptor (Homo sapiens, UniProt Q9UM73, L1196M)
# Description: Binding affinity to ALK L1196M mutant (unknown origin) assessed as inhibition constant
# Sequence of Tyrosine-protein kinase JAK2 (O60674 whole entry): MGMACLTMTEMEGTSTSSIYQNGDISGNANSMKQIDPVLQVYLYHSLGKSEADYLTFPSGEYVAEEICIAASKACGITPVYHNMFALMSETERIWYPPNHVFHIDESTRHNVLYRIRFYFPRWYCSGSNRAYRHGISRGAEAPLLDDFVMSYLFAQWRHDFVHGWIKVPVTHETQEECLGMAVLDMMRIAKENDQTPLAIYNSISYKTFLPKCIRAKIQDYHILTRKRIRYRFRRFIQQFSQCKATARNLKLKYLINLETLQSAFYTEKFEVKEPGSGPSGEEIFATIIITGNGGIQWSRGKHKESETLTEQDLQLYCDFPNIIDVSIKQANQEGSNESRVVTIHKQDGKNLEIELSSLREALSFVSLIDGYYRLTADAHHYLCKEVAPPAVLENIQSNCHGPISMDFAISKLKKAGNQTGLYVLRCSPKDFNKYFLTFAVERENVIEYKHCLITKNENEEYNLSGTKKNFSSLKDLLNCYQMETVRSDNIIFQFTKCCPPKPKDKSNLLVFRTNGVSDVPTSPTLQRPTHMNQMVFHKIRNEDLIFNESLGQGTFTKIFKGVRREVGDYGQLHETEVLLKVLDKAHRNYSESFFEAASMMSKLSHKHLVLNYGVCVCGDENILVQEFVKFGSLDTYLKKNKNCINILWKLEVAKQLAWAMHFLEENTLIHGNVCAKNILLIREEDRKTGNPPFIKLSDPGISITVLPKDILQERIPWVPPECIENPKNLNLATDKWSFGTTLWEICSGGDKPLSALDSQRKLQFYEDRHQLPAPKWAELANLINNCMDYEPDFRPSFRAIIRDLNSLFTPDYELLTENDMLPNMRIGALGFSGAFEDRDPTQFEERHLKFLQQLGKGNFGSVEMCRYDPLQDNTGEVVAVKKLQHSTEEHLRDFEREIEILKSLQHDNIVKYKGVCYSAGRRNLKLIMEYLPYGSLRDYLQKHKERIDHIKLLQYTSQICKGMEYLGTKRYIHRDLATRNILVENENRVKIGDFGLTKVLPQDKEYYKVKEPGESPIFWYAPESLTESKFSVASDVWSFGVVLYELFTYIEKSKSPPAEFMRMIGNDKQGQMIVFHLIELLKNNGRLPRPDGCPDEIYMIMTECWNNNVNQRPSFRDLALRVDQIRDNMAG
# Sequence of Non-receptor tyrosine-protein kinase TYK2 (P29597 whole entry): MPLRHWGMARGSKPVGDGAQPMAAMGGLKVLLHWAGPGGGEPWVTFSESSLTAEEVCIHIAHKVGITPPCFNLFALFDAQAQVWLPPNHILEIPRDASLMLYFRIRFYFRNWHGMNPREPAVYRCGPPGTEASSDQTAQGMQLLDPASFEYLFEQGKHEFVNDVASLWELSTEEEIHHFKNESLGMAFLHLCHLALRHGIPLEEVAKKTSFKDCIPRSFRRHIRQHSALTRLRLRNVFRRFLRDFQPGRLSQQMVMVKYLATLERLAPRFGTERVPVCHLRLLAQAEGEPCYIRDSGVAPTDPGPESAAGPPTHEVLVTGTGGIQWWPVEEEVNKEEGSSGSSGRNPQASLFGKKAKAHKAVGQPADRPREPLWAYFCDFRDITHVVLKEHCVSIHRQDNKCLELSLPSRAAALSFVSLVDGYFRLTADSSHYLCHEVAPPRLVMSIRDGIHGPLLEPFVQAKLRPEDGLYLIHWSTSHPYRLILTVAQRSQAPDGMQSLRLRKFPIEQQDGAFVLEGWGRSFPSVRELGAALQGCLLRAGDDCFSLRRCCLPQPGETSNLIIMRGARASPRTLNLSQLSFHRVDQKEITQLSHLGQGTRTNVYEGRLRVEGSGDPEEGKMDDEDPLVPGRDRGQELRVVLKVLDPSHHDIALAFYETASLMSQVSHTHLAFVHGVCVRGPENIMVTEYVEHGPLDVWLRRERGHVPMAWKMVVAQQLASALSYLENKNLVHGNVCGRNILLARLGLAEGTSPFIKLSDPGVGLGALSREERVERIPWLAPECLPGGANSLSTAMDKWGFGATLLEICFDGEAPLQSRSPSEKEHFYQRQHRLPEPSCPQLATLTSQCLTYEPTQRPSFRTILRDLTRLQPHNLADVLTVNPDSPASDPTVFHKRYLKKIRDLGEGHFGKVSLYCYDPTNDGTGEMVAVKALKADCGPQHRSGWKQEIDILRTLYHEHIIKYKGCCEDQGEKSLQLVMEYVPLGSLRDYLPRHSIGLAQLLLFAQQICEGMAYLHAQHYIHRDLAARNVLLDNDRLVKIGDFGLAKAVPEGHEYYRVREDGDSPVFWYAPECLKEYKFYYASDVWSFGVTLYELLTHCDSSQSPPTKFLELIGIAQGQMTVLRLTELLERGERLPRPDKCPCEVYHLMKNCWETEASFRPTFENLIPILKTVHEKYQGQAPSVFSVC
# Sequence of Tyrosine-protein kinase JAK1 (P23458 whole entry): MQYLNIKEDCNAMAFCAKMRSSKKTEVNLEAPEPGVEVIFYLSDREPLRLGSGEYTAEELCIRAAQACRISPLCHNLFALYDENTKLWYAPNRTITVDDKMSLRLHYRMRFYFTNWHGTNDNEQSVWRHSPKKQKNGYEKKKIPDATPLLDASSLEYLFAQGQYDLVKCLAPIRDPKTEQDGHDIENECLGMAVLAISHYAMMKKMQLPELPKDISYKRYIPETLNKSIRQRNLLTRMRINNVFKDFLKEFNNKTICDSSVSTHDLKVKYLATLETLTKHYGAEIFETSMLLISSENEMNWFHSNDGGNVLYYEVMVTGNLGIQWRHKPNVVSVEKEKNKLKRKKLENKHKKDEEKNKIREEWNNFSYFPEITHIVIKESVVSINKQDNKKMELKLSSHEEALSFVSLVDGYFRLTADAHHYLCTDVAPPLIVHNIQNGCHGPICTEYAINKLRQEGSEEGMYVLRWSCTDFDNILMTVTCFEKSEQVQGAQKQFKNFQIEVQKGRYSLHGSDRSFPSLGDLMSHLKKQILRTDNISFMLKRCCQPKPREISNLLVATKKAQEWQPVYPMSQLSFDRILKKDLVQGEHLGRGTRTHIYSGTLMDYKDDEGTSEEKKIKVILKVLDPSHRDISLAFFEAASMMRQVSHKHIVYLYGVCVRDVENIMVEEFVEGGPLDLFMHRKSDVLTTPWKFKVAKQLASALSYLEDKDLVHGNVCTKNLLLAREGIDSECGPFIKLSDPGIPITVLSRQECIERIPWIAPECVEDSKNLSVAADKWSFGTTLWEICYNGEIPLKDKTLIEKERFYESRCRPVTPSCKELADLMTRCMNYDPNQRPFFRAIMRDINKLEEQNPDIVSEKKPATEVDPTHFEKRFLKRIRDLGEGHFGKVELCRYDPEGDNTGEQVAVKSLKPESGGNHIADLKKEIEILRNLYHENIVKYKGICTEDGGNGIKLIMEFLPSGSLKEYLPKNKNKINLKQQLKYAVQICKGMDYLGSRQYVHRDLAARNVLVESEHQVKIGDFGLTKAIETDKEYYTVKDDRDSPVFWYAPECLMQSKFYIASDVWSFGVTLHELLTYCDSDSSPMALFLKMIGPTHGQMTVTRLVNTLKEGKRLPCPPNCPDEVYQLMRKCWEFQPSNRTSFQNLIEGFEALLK
# T1 sequence (P08684 whole entry): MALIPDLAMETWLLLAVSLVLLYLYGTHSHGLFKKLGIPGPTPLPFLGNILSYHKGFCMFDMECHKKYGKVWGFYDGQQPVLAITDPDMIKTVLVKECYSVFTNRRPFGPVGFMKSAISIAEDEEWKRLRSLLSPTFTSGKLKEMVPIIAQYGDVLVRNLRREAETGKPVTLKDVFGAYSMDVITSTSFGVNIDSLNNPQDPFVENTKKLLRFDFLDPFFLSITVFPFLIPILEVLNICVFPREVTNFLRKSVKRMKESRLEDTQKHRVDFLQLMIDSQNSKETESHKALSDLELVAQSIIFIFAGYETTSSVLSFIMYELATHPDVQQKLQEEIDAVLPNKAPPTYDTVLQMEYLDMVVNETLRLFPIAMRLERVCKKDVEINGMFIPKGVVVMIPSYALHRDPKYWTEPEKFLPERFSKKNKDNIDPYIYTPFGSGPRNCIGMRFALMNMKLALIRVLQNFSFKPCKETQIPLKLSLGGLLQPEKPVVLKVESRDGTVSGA
# T4 sequence (P10635 whole entry): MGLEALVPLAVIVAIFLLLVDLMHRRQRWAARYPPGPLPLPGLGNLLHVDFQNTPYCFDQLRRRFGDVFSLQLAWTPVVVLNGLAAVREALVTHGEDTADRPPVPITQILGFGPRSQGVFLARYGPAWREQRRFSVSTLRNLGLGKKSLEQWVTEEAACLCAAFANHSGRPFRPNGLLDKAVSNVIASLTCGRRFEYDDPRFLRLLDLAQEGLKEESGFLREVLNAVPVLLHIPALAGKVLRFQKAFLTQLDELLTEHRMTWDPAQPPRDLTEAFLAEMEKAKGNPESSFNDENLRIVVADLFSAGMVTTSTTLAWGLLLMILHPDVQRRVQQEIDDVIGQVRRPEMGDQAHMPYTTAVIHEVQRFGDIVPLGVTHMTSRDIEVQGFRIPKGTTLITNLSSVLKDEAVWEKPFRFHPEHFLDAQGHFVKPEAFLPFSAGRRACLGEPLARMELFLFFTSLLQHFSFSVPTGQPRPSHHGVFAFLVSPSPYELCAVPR
smiles,measurement,setting,value
COc1ccc(F)cc1[C@@H](C)Oc1cc(-c2cnnn2C)cnc1N,microsomal CLint,[1],25 µL/min/mg
C1=C2COC/C=C/COCc3cc(ccc3OCCN3CCCC3)Nc3nccc(n3)C(=C1)O2 [CT-1578],solubility kinetic,[2],> 250 µg/mL
same,fraction unbound,[3],0.127
same,half-life,[4],> 60 min
same,half-life,[5],18 min
CN1C/C=C/CCOc2cccc(c2)-c2ccnc(n2)Nc2cccc(c2)C1 [ZOTIRACICLIB],solubility kinetic,[2],71.8 µg/mL
same,fraction unbound,[3],0.006
same,IC50,[6],> 25 µM
same,half-life,[5],12 min
C[C@H]1Oc2cc(cnc2N)-c2c(nn(C)c2C#N)CN(C)C(=O)c2ccc(F)cc21 [LORLATINIB],microsomal CLint,[1],< 8 µL/min/mg
O=C(Nc1cnn2ccc(N3CCC[C@@H]3c3cc(F)ccc3F)nc12)N1CC[C@H](O)C1 [LAROTRECTINIB],GI50,[7],1020 nM
same,GI50,[8],70 nM
same,GI50,[9],18.8 nM
same,GI50,[10],> 10000 nM
same,GI50,[11],172 nM
same,GI50,[12],5 nM
same,GI50,[13],1020 nM
same,GI50,[14],10.2 nM
same,GI50,[15],3.29 µM
same,GI50,[16],742 nM
CN(C)CCN(C)c1ccc2cc1COC/C=C/COCc1cccc(c1)-c1ccnc(n1)N2,IC50,[17],88 nM
same,IC50,[18],71 nM
same,IC50,[19],3.6 µM
same,IC50,[20],77 nM
same,IC50,[21],31 nM
C[C@@H]1CCc2ncc(F)cc2[C@H]2CCCN2c2ccn3ncc(c3n2)C(=O)N1 [SELITRECTINIB],GI50,[22],7 nM
same,GI50,[7],29 nM
same,GI50,[23],9 nM
same,GI50,[8],25 nM
same,GI50,[10],45.5 nM
same,GI50,[11],17.5 nM
CNC(=O)c1ccc(F)cc1[C@@H](C)Oc1nc(-c2cccnc2OC)cnc1N,microsomal CLint,[1],76 µL/min/mg
CNC(=O)c1ccc(F)cc1[C@@H](C)Oc1cc(-c2cn(C)nc2C)cnc1N,logD,[24],3.7
same,microsomal CLint,[1],28 µL/min/mg
OCCN1CCN(c2ccc3cc2COC/C=C/COCc2cccc(c2)-c2ccnc(n2)N3)CC1,IC50,[25],2500 nM
same,IC50,[17],3700 nM
same,IC50,[18],160 nM
same,IC50,[19],3.1 µM
same,IC50,[20],84 nM
same,IC50,[21],70 nM
COc1ccc2cc1COC/C=C/COCc1cc(ccc1OCCN1CCCC1)Nc1nccc-2n1,IC50,[25],890 nM
same,IC50,[17],> 10000 nM
same,IC50,[18],180 nM
same,GI50,[26],100 nM
same,IC50,[19],> 10 µM
same,IC50,[20],19 nM
same,IC50,[21],92 nM
same,IC50,[27],> 10 µM
same,IC50,[28],10 µM
same,solubility,[29],60.8 µg/mL
same,Papp,[30],10.1 ×10⁻⁶ cm/s
Cc1nn(C)c2c1-c1cnc(N)c(c1)O[C@H](C)c1cc(F)ccc1C(=O)N(C)C2,microsomal CLint,[1],8.6 µL/min/mg
Cc1cnc2nc1-c1cccc(c1)COC/C=C/COCc1cc(ccc1OCCN1CCCC1)N2,IC50,[25],89 nM
same,IC50,[18],57 nM
same,GI50,[26],180 nM
same,IC50,[19],1 µM
same,IC50,[20],7 nM
same,IC50,[21],19 nM
C1=N/C2=N/c3ccc(OCCN4CCCC4)c(c3)COC/C=C/COCc3cccc(c3)C(=C1)N2 [PACRITINIB],solubility kinetic,[2],> 150 µg/mL
same,IC50,[17],> 3900 nM
same,GI50,[26],160 nM
same,fraction unbound,[3],0.006
same,IC50,[27],> 5 µM
same,IC50,[28],5 µM
same,IC50,[6],> 5 µM
same,IC50,[31],> 5 µM
same,solubility,[29],> 150 µg/mL
same,half-life,[4],> 60 min
same,half-life,[5],22 min
C[C@@H]1Oc2cc(cnc2N)-c2c(C#N)nn(C)c2CCCOc2ccc(F)cc21,Ki,[32],< 0.1 nM
same,Ki,[33],0.62 nM
same,logD,[24],3.8
COc1ccc2cc1COC/C=C/COCc1cccc(c1)-c1ccnc(n1)N2,IC50,[25],1200 nM
same,IC50,[17],860 nM
same,IC50,[18],210 nM
same,IC50,[19],1.9 µM
